Experiments:
[1] = molecular target: Aldo-keto reductase family 1 member B10 (Homo sapiens, UniProt O60218); test: Inhibition of retinaldehyde reductase activity of human AKR1B10
[2] = molecular target: Aldo-keto reductase family 1 member B1 (Rattus norvegicus, UniProt P07943); test: Inhibition of rat AKR1B4
[3] = molecular target: Aldo-keto reductase family 1 member B1 (Homo sapiens, UniProt P15121); test: Inhibition of glyceraldehyde reduction activity of human AKR1B1

Chain of Aldo-keto reductase family 1 member B10 (O60218 whole entry): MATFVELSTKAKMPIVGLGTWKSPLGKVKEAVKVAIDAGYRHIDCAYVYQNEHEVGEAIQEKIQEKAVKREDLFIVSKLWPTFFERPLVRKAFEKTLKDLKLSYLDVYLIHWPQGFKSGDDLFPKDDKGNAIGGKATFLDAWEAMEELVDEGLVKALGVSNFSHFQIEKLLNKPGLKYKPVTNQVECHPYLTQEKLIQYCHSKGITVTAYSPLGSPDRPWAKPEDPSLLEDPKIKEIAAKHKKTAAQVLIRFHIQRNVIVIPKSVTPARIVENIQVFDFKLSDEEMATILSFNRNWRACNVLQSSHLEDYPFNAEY

| IC50 [1] | IC50 [2] | IC50 [3] | SMILES |
| --- | --- | --- | --- |
| 11.6 nM | 1000 nM | – | COc1ccc2c(C(=S)N(C)CC(=O)O)cccc2c1C(F)(F)F [TOLRESTAT] |
| – | – | 10 nM | O=CC(O)CO (racemic) |
